Laboratory results taken from PubChem BioAssay (NCI).
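Each compound was tested at five concentrations against cells in 96-well plates for 48 hours. At the GI50, growth is halved. TGI: total growth inhibition.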

How the values were obtained:
Assay in all cases: NCI-60 cell line screen, 48 h
[1] = tested on: HOP-62 NSCLC
[2] = tested on: KM12 colon
[3] = tested on: OVCAR-4 ovarian
[4] = tested on: SN12C renal
[5] = tested on: COLO 205 colon
[6] = tested on: NCI/ADR-RES ovarian
[7] = tested on: DU-145 prostate
[8] = tested on: SK-MEL-2 melanoma
[9] = tested on: MDA-MB-435
[10] = tested on: UO-31 renal
[11] = tested on: OVCAR-3 ovarian
[12] = tested on: SK-MEL-5 melanoma
[13] = tested on: LOX IMVI melanoma
[14] = tested on: NCI-H460 lung
[15] = tested on: HCT-15 colon
[16] = tested on: RPMI-8226 leukemia
[17] = tested on: SW-620 colon
[18] = tested on: HCC-2998 colon
[19] = tested on: CAKI-1 renal
[20] = tested on: OVCAR-5 ovarian
[21] = tested on: SF-268 CNS
[22] = tested on: NCI-H522 lung
[23] = tested on: NCI-H23 lung
[24] = tested on: UACC-62 melanoma
[25] = tested on: MCF7 breast
[26] = tested on: BT-549 breast
[27] = tested on: CCRF-CEM leukemia
[28] = tested on: HL-60(TB) leukemia
[29] = tested on: RXF 393 renal
[30] = tested on: SF-539 CNS
[31] = tested on: PC-3 prostate
[32] = tested on: SF-295 CNS
[33] = tested on: MOLT-4 leukemia
[34] = tested on: NCI-H226 lung
[35] = tested on: TK-10 renal
[36] = tested on: HCT-116 colon
[37] = tested on: T-47D breast
[38] = tested on: SNB-19 CNS
[39] = tested on: SK-MEL-28 melanoma
[40] = tested on: A498 renal
[41] = tested on: HT29 colon
[42] = tested on: 786-0 renal
[43] = tested on: OVCAR-8 ovarian
[44] = tested on: A549 NSCLC
[45] = tested on: MDA-MB-231 breast
[46] = tested on: ACHN renal
[47] = tested on: IGROV1 ovarian
[48] = tested on: MALME-3M melanoma
[49] = tested on: SR leukemia
[50] = tested on: UACC-257 melanoma
[51] = tested on: HOP-92 NSCLC
[52] = tested on: SNB-75 CNS
[53] = tested on: HS 578T breast
[54] = tested on: K-562 leukemia
[55] = tested on: SK-OV-3 ovarian
[56] = tested on: U251 CNS

COc1cc(Nc2ccnc(NCCNc3ccnc4cc(Cl)ccc34)n2)cc(OC)c1
GI50 [1]: 2.14 µM | TGI [1]: 8.36 µM | GI50 [2]: 3.34 µM | TGI [2]: 14.2 µM | GI50 [3]: 1.33 µM | TGI [3]: 6.56 µM | GI50 [4]: 2.19 µM | TGI [4]: 12.4 µM | GI50 [5]: 1.61 µM | TGI [5]: 3.46 µM | GI50 [6]: 3.79 µM | TGI [6]: 16.4 µM | GI50 [7]: 4.03 µM | TGI [7]: 15.6 µM | GI50 [8]: 1.91 µM | TGI [8]: 4.18 µM | GI50 [9]: 1.55 µM | TGI [9]: 2.95 µM | GI50 [10]: 1.19 µM | TGI [10]: 2.81 µM | GI50 [11]: 1.89 µM | TGI [11]: 5.03 µM | GI50 [12]: 1.69 µM | TGI [12]: 3.24 µM | GI50 [13]: 1.47 µM | TGI [13]: 2.97 µM | GI50 [14]: 1.45 µM | TGI [14]: 5.31 µM | GI50 [15]: 1.37 µM | TGI [15]: 3.42 µM | GI50 [16]: 1.41 µM | TGI [16]: 4.45 µM | GI50 [17]: 1.66 µM | TGI [17]: 4.18 µM | GI50 [18]: 1.75 µM | TGI [18]: 3.78 µM | GI50 [19]: 2.17 µM | TGI [19]: 6.59 µM | GI50 [20]: 1.66 µM | TGI [20]: 6.27 µM | GI50 [21]: 3.1 µM | TGI [21]: 12.5 µM | GI50 [22]: 1.78 µM | TGI [22]: 5.19 µM | GI50 [23]: 1.86 µM | TGI [23]: 14.1 µM | GI50 [24]: 1.6 µM | TGI [24]: 3.08 µM | GI50 [25]: 1.61 µM | TGI [25]: 3.97 µM | GI50 [26]: 1.86 µM | TGI [26]: 4.24 µM | GI50 [27]: 2.45 µM | TGI [27]: 9.69 µM | GI50 [28]: 2.22 µM | TGI [28]: 5.28 µM | GI50 [29]: 1.38 µM | TGI [29]: 2.94 µM | GI50 [30]: 1.48 µM | TGI [30]: 2.86 µM | GI50 [31]: 2.51 µM | TGI [31]: 14.4 µM | GI50 [32]: 0.961 µM | TGI [32]: 2.43 µM | GI50 [33]: 1.84 µM | TGI [33]: 8.9 µM | GI50 [34]: 2.95 µM | TGI [34]: 22.8 µM | GI50 [35]: 3.72 µM | TGI [35]: 9.71 µM | GI50 [36]: 0.83 µM | TGI [36]: 2.58 µM | GI50 [37]: 1.73 µM | TGI [37]: 4.45 µM | GI50 [38]: 2.38 µM | TGI [38]: 8.9 µM | GI50 [39]: 1.76 µM | TGI [39]: 3.29 µM | GI50 [40]: 0.175 µM | TGI [40]: 2.2 µM | GI50 [41]: 0.588 µM | TGI [41]: 3.76 µM | GI50 [42]: 1.56 µM | TGI [42]: 2.9 µM | GI50 [43]: 2.52 µM | TGI [43]: 11.5 µM | GI50 [44]: 3.23 µM | TGI [44]: 14.8 µM | GI50 [45]: 1.41 µM | TGI [45]: 3.74 µM | GI50 [46]: 1.95 µM | TGI [46]: 5.16 µM | GI50 [47]: 1.89 µM | TGI [47]: 5.56 µM | GI50 [48]: 1.86 µM | TGI [48]: 3.69 µM | GI50 [49]: 1.65 µM | TGI [49]: 6.85 µM | GI50 [50]: 1.82 µM | TGI [50]: 3.87 µM | GI50 [51]: 0.811 µM | TGI [51]: 4.45 µM | GI50 [52]: 1.73 µM | TGI [52]: 3.52 µM | GI50 [53]: 2.18 µM | TGI [53]: 5.93 µM | GI50 [54]: 0.843 µM | TGI [54]: 3.82 µM | GI50 [55]: 8.58 µM | TGI [55]: 21 µM | GI50 [56]: 1.61 µM | TGI [56]: 4.27 µM
